Patent publication US20050148553A1, “Use of tigecycline, alone, or in combination with rifampin to treat osteomyelitis and/or septic arthritis” (priority 2003, published 2005)

Assay: Whole body autoradiography after 30-minute 3 mg/kg IV infusion of [^14C]-tigecycline
Type: in vivo, Sprague-Dawley rats
Experimental: Male Sprague-Dawley and Long-Evans rats were obtained from Charles River Breeding Laboratories, Raleigh, N.C., and were quarantined for at least one week prior to the start of the study. […] The dosing solution was diluted and radioassayed directly in Ultima Gold scintillation counting cocktail (Packard Inc.). […] All pumps were calibrated prior to the administration of the compound. Rats were anesthetized with isoflurane prior to cardiac puncture exsanguination at the prescribed times after dosing. […] Control whole blood was collected from male Sprague-Dawley rats into tubes containing sodium heparin. Pooled blood was used to prepare the calibration standards and quality control samples. The standards were used to construct the standard curve for the quantification of radiolabeled drug distribution in tissues of whole blood cryosections. The quality controls, which were embedded in the same CMC block with each rat, were used for assessing intra- and inter-section variation in the thickness of rat whole-body cryosections. […] Immediately following euthanasia, each rat was totally immersed in a bath of hexane and dry ice (−75° C.) until frozen. Each carcass was dried and stored at −30° C. until embedded. […] Each frozen rat was sagitally sectioned at −20° C. A sufficient number of sections were collected to ensure sampling of all tissues of interest. The sections were dehydrated overnight in a cryochamber and then rapidly transferred to a dessicator containing CaSO4 to prevent condensation of atmospheric moisture while equilibrating to room temperature. The sections were mounted on cardboard and labeled with [^14C]-labeled black ink with a unique identification number. […] A small piece of Scotch tape was placed over the dried radioactive ink to prevent the contamination of the storage phosphor screens. Phosphor imaging plates, BAS-SR 2025 (Fuji Photo Film Co., Japan) were exposed to bright visible light for 20 minutes using an IP eraser (Raytest, USA Inc., New Castle, Del.) to remove background radiation. Sections and calibration blood standards were concurrently placed in direct contact with Ips and exposed for 7 days. All sections were stored at room temperature in a lead shielding box to minimize background levels. Phosphor images were generated using a Fujifilm BAS-5000 Bio-Imaging Analyzer and quantitated by MCID M2 Software, version 3.2 (Imaging Research Inc., St. Catherines, Ontario, Canada). The STDs and QCs were analyzed using the circular sampling tool in the MCID software program. Areas of interest in whole-body sections were manually outlined with the regional sampling tool to generate count data. Radioactive concentrations in select tissues were determined by digital analysis of the resulting autoradiograms on the basis of a calibration curve. […] The linear regression curve was then used to determine the concentration of unknown radioactivity of study samples. […] Blood samples were combusted using a Model 307 sample oxidizer (Packard Instrument Company). […] Research Triangle Park, N.C.), which applies a model-independent approach and standard procedures as described in Gibaldi and Perrier. Gibaldi, Pharmacokinetics, 1982. […] For IV infusion dosing, C30 min was the concentration at 30 minutes, the first sampling time point. The maximum plasma concentration (Cmax) and the corresponding time of peak concentration following IV administration were obtained directly by numerical inspection from the individual concentration-time data. The terminal half-life was calculated by the ratio of ln2/λz where λz is derived from the terminal slope of the concentration time curve. The area under the plasma concentration versus time curve from zero to infinity was calculated using the trapezoidal rule, where Clast is the last measurable plasma concentration. […]

With `CN(C)c1cc(NC(=O)CNC(C)(C)C)c(O)c2c1C[C@H]1C[C@H]3[C@H](N(C)C)C(O)=C(C(N)=O)C(=O)[C@@]3(O)C(O)=C1C2=O` [[^14C]-Tigecycline] the “Mean concentration of total radioactivity” value (from here on “Mean concentration”) (Liver, 24 Hrs) was 160 ng equiv./g, the “Tissue:Plasma Ratio” value (Liver, 24 Hrs) was 10.8 and the “Mean concentration” value (Liver, 72 Hrs) was 22.7 ng equiv./g. The “Tissue:Plasma Ratio” value (Liver, 72 Hrs) was 5.26, the “Mean concentration” value (Liver, 168 Hrs) was 13.3 ng equiv./g and the “Mean concentration” value (Liver, 336 Hrs) was under 5.10 ng equiv./g. For the same compound, the AUC (Liver, first AUC column) was 52676 Ng eq hr/g, the “Mean concentration” value (Lung, 0.5 Hrs) was 2981 ng equiv./g and the “Tissue:Plasma Ratio” value (Lung, 0.5 Hrs) was 3.33. The “Mean concentration” value (Lung, 8.5 Hrs) was 496 ng equiv./g, the “Tissue:Plasma Ratio” value (Lung, 8.5 Hrs) was 0.984 and the “Mean concentration” value (Lung, 24 Hrs) was 73.1 ng equiv./g. For the same compound, the “Tissue:Plasma Ratio” value (Lung, 24 Hrs) was 4.96, the “Mean concentration” value (Lung, 72 Hrs) was 13.5 ng equiv./g and the “Tissue:Plasma Ratio” value (Lung, 72 Hrs) was 3.13. The “Mean concentration” value (Lung, 168 Hrs) was under 5.10 ng equiv./g, the “Mean concentration” value (Lung, 336 Hrs) was under 5.10 ng equiv./g and the AUC (Lung, first AUC column) was 21263 Ng eq hr/g. The AUC (Lymph Node) was 37010 Ng eq hr/g, the “Mean concentration” value (Lymph Node, 0.5 Hrs) was 3473 ng equiv./g and the “Tissue:Plasma Ratio” value (Lymph Node, 0.5 Hrs) was 3.88. The “Mean concentration” value (Lymph Node, 8.5 Hrs) was 1276 ng equiv./g, the “Tissue:Plasma Ratio” value (Lymph Node, 8.5 Hrs) was 2.53 and the “Mean concentration” value (Lymph Node, 24 Hrs) was 180 ng equiv./g. For the same compound, the “Tissue:Plasma Ratio” value (Lymph Node, 24 Hrs) was 12.2, the “Mean concentration” value (Lymph Node, 72 Hrs) was 29.1 ng equiv./g and the “Tissue:Plasma Ratio” value (Lymph Node, 72 Hrs) was 6.75. For the same compound, the “Mean concentration” value (Lymph Node, 168 Hrs) was under 5.10 ng equiv./g, the “Mean concentration” value (Lymph Node, 336 Hrs) was under 5.10 ng equiv./g and the AUC (Lymph Node, first AUC column) was 36478 Ng eq hr/g. The AUC (Muscle) was 34910 Ng eq hr/g, the “Mean concentration” value (Muscle, 0.5 Hrs) was 2260 ng equiv./g and the “Tissue:Plasma Ratio” value (Muscle, 0.5 Hrs) was 2.52. For the same compound, the “Mean concentration” value (Muscle, 8.5 Hrs) was 1863 ng equiv./g, the “Tissue:Plasma Ratio” value (Muscle, 8.5 Hrs) was 3.70 and the “Mean concentration” value (Muscle, 24 Hrs) was 85.8 ng equiv./g. The “Tissue:Plasma Ratio” value (Muscle, 24 Hrs) was 5.801, the “Mean concentration” value (Muscle, 72 Hrs) was 6.24 ng equiv./g and the “Tissue:Plasma Ratio” value (Muscle, 72 Hrs) was 1.45. The “Mean concentration” value (Muscle, 168 Hrs) was under 5.10 ng equiv./g, the “Mean concentration” value (Muscle, 336 Hrs) was under 5.10 ng equiv./g and the AUC (Muscle, first AUC column) was 34833 Ng eq hr/g. The AUC (Pancreas) was 33014 Ng eq hr/g, the “Mean concentration” value (Pancreas, 0.5 Hrs) was 4437 ng equiv./g and the “Tissue:Plasma Ratio” value (Pancreas, 0.5 Hrs) was 4.96. The “Mean concentration” value (Pancreas, 8.5 Hrs) was 971 ng equiv./g, the “Tissue:Plasma Ratio” value (Pancreas, 8.5 Hrs) was 1.93 and the “Mean concentration” value (Pancreas, 24 Hrs) was 70.0 ng equiv./g. For the same compound, the “Tissue:Plasma Ratio” value (Pancreas, 24 Hrs) was 4.75, the “Mean concentration” value (Pancreas, 72 Hrs) was 7.41 ng equiv./g and the “Tissue:Plasma Ratio” value (Pancreas, 72 Hrs) was 1.72. For the same compound, the “Mean concentration” value (Pancreas, 168 Hrs) was under 5.10 ng equiv./g, the “Mean concentration” value (Pancreas, 336 Hrs) was under 5.10 ng equiv./g and the AUC (Pancreas, first AUC column) was 32908 Ng eq hr/g. For the same compound, the AUC (Pituitary) was 45164 Ng eq hr/g, the “Mean concentration” value (Pituitary, 0.5 Hrs) was 3693 ng equiv./g and the “Tissue:Plasma Ratio” value (Pituitary, 0.5 Hrs) was 4.13. For the same compound, the “Mean concentration” value (Pituitary, 8.5 Hrs) was 2014 ng equiv./g, the “Tissue:Plasma Ratio” value (Pituitary, 8.5 Hrs) was 4.00 and the “Tissue:Plasma Ratio” value (Pituitary, 24 Hrs) was 9.79. For the same compound, the “Tissue:Plasma Ratio” value (Pituitary, 72 Hrs) was 4.36, the AUC (Pituitary, first AUC column) was 44882 Ng eq hr/g and the AUC (Plasma) was 10652 Ng eq hr/g. For the same compound, the “Tissue:Plasma Ratio” value (Plasma, 0.5 Hrs) was 1.00, the “Tissue:Plasma Ratio” value (Plasma, 8.5 Hrs) was 1.00 and the “Tissue:Plasma Ratio” value (Plasma, 24 Hrs) was 1.00. The “Tissue:Plasma Ratio” value (Plasma, 72 Hrs) was 1.00, the AUC (Plasma, first AUC column) was 10643 Ng eq hr/g and the AUC (Salivary Gland) was 110979 Ng eq hr/g. The “Tissue:Plasma Ratio” value (Salivary Gland, 0.5 Hrs) was 6.45, the “Tissue:Plasma Ratio” value (Salivary Gland, 8.5 Hrs) was 12.53 and the “Tissue:Plasma Ratio” value (Salivary Gland, 24 Hrs) was 20.3. The “Tissue:Plasma Ratio” value (Salivary Gland, 72 Hrs) was 7.32, the AUC (Salivary Gland, first AUC column) was 110558 Ng eq hr/g and the AUC (Skin) was 36471 Ng eq hr/g. The “Tissue:Plasma Ratio” value (Skin, 0.5 Hrs) was 2.15, the “Tissue:Plasma Ratio” value (Skin, 8.5 Hrs) was 1.14 and the “Tissue:Plasma Ratio” value (Skin, 24 Hrs) was 16.9. For the same compound, the “Tissue:Plasma Ratio” value (Skin, 72 Hrs) was 19.3, the AUC (Skin, first AUC column) was 31819 Ng eq hr/g and the AUC (Spleen) was 70522 Ng eq hr/g. The Cmax (Spleen) was 6627 Ng equiv/g, the “Tissue:Plasma Ratio” value (Spleen, 0.5 Hrs) was 7.40 and the “Tissue:Plasma Ratio” value (Spleen, 8.5 Hrs) was 3.36. The “Tissue:Plasma Ratio” value (Spleen, 24 Hrs) was 32.3, the “Tissue:Plasma Ratio” value (Spleen, 72 Hrs) was 16.7 and the AUC (Spleen, first AUC column) was 69638 Ng eq hr/g. For the same compound, the “Tissue:Plasma Ratio” value (Testes, 0.5 Hrs) was 0.388, the “Tissue:Plasma Ratio” value (Testes, 8.5 Hrs) was 0.716 and the “Tissue:Plasma Ratio” value (Testes, 24 Hrs) was 8.08. The “Tissue:Plasma Ratio” value (Testes, 72 Hrs) was 3.80, the AUC (Testes, first AUC column) was 9975 Ng eq hr/g and the AUC (Testes, second AUC column) was 10323 Ng eq hr/g. For the same compound, the AUC (Testes, second AUC column, listed as [^14C]-tigecycline) was 10303 Ng eq hr/g, the AUC (Thymus) was 35430 Ng eq hr/g and the “Tissue:Plasma Ratio” value (Thymus, 0.5 Hrs) was 2.82. The “Tissue:Plasma Ratio” value (Thymus, 8.5 Hrs) was 3.16, the “Tissue:Plasma Ratio” value (Thymus, 24 Hrs) was 10.7 and the “Tissue:Plasma Ratio” value (Thymus, 72 Hrs) was 3.55. The AUC (Thymus, first AUC column) was 35204 Ng eq hr/g, the AUC (Thyroid) was 330047 Ng eq hr/g and the “Tissue:Plasma Ratio” value (Thyroid, 0.5 Hrs) was 3.34. The “Tissue:Plasma Ratio” value (Thyroid, 8.5 Hrs) was 3.50, the “Tissue:Plasma Ratio” value (Thyroid, 24 Hrs) was 24.0 and the “Tissue:Plasma Ratio” value (Thyroid, 72 Hrs) was 56.0. The “Tissue:Plasma Ratio” value (Thyroid, 72 Hrs, listed as [^14C]-tigecycline) was 56, the AUC (Thyroid, first AUC column) was 113022 Ng eq hr/g and the AUC (lung) was 21523 Ng eq hr/g. The “elimination half-lives across tissues” value (male, Sprague-Dawley, rat, in vivo) was 5 to 217 h.
